The text below walks through data of the RepoRT retention time repository.

Where a name gives a salt, the structure may show the parent alone.

This data set can be described thus: RP, Waters ACQUITY Premier BEH C18, 100 × 2.1 mm, 1.7 µm, 40 °C, 0.3 to 0.4 mL/min, estimated dead time 0.73 min; A: water + 0.1% formic acid; B: acetonitrile + 0.1% formic acid; gradient (min/%B) 0/0.5 0.1/0.5 10/80 10.1/99.5 12/0.5 12.1/0.5 14.5/0.5. The conditions noted are these: stereoisomer not certain.
For the compound `O=c1c(-c2ccc(O)cc2)coc2cc(OC3OC(CO)C(O)C(O)C3O)ccc12` (stereo not given) [DAIDZIN], the LC retention time was 4.08 min.

`Nc1c(O)cccc1C(=O)O` [3-HYDROXYANTHRANILATE]: the LC retention time is 3.85 min. The result for `O=c1cc(-c2ccc(O)c(-c3c(O)cc(O)c4c(=O)cc(-c5ccc(O)cc5)oc34)c2)oc2cc(O)cc(O)c12` [AMENTOFLAVONE] reads 6.35 min. `O=C(O)c1ccccc1O` [SALICYLATE]: the LC retention time is 5.97 min. As to `O=c1cc[nH]c2c(O)cccc12` [QUINOLINE-4,8-DIOL], the LC retention time was 4.14 min.

Turning to `O=C(O)C1(O)CC(O)C(O)C(O)C1` (stereo not given) [QUINATE], the LC retention time was 0.92 min. As for `NCc1[nH]cc(CCC(=O)O)c1CC(=O)O` [PORPHOBILINOGEN], the figure is 3.51 min; as for `NC(CCC(=O)NC(Cc1ccccc1)C(=O)O)C(=O)O` (stereo not given) [GAMMA-GLUTAMYLPHENYLALANINE], 3.65 min. In the case of `O=S(=O)(O)Oc1c[nH]c2ccccc12` [INDOXYL SULFATE], the LC retention time was 4.58 min. `O=C(O)CCC(=O)C(=O)O` [OXOGLUTARATE]: the LC retention time was 1.3 min. As for `NC(=O)[C@@H](N)Cc1c[nH]c2ccccc12` [L-TRYPTOPHANAMIDE], the figure is 3.9 min; as for `O=c1cc(-c2ccc(O)cc2)oc2cc(O)cc(O)c12` [APIGENIN], 6.02 min; as for `O=C(O)CC(O)C(=O)O` (stereo not given) [MALATE], 1.11 min. The result for `COc1cc(CC2C(=O)OCC2Cc2ccc(OC)c(OC)c2)ccc1O` (stereo not given) [ARCTIGENIN] reads 6.63 min.

As for `CC(CCC(=O)O)C1CCC2C3C(O)C(O)C4CC(O)CCC4(C)C3CCC12C` (stereo not given) [HYOCHOLIC ACID], the LC retention time is 6.98 min.

Turning to `O=C(O)CC(C(=O)O)C(O)C(=O)O` (stereo not given) [ISOCITRATE], the LC retention time was 1.16 min. In the case of `NC(CCSSCCC(N)C(=O)O)C(=O)O` (stereo not given) [HOMOCYSTINE], the LC retention time is 0.958 min. Consider `COc1ccc(-c2coc3cc(O)cc(O)c3c2=O)cc1` [BIOCHANIN A], for which the LC retention time was 7.15 min.

As to `Oc1ccc(C=Cc2cc(O)cc(O)c2)cc1` [RESVERATROL], the LC retention time is 5.3 min. The result for `CC1=C(O)C(=O)C=C2C1=CC=C1C2(C)CCC2(C)C3CC(C)(C(=O)O)CCC3(C)CCC12C` (stereo not given) [CELASTROL] reads 8.6 min; that for `CC(=O)C1CCC2C3CC=C4CC(OS(=O)(=O)O)CCC4(C)C3CCC12C` (stereo not given) [PREGNENOLONE SULFATE], 7.26 min; that for `NCC(O)c1ccc(O)c(O)c1` (stereo not given) [NORADRENALINE], 0.887 min. Regarding `O=C(OCC1=CC(O)C2C=COC(OC3OC(CO)C(O)C(O)C3O)C12)c1ccc(O)cc1` (stereo not given) [AGNUSIDE], the LC retention time is 4.2 min.

For the compound `CC(CCC(=O)O)C1CCC2C3C(=O)CC4CC(O)CCC4(C)C3CC(O)C12C` (stereo not given) [7-KETODEOXYCHOLATE], the LC retention time was 6.88 min.

On to `CC1(C(=O)O)CCC2(C)CCC3(C)C(=CC(=O)C4C5(C)CCC(O)C(C)(C)C5CCC43C)C2C1` (stereo not given) [GLYCYRRHETINIC ACID], for which the LC retention time is 8.08 min. The result for `NC(=O)c1ccc[n+](C2OC(COP(=O)(O)OP(=O)(O)OCC3OC(n4cnc5c(N)ncnc54)C(O)C3O)C(O)C2O)c1` (stereo not drawn) [BETA-NICOTINAMIDE ADENINE DINUCLEOTIDE] reads 2.13 min; that for `Cn1c(=O)c2[nH]cnc2n(C)c1=O` [THEOPHYLLINE], 3.96 min. For the compound `CCCCCCCC(=O)OC(CC(=O)[O-])C[N+](C)(C)C` [L-OCTANOYLCARNITINE], the LC retention time is 5.76 min. The result for `Nc1ncnc2c1ncn2C1OC(COP(=O)(O)O)C(OP(=O)(O)O)C1O` (stereo not given) [ADENOSINE 3',5'-DIPHOSPHATE] reads 1.11 min; that for `O=C(OC1Cc2c(O)cc(O)cc2OC1c1ccc(O)c(O)c1)c1cc(O)c(O)c(O)c1` (stereo not given) [(?)-EPICATECHIN GALLATE], 4.47 min; that for `CSCCC(NC(C)=O)C(=O)O` (stereo not given) [N-ACETYLMETHIONINE], 4.21 min. With `CCCCCCCCC=CCCCCCCCC(=O)O` [ELAIDATE], the LC retention time is 10 min. The result for `COc1cc(C(=O)O)ccc1O` [VANILLIC ACID] reads 3.91 min; that for `CC1NCCc2cc(O)c(O)cc21` (stereo not given) [SALSOLINOL], 2.56 min. For the compound `O=C(O)c1c(O)cccc1O` [2,6-DIHYDROXYBENZOIC ACID], the LC retention time was 4.5 min. With `O=C(O)CCCC(=O)O` [GLUTARATE], the LC retention time is 3.5 min.

Take `O=C(O)C1=COC(OC2OC(CO)C(O)C(O)C2O)C2C(CO)=CCC12` (stereo not given) [GENIPOSIDIC ACID]: the LC retention time was 1.89 min. Take `C=C1CC2(O)OC3(CC2C(C)C)C(C)CCC13` (stereo not given) [CURCUMOL]: the LC retention time is 7.93 min. Regarding `CCCCCC(=O)NCC(=O)O` [HEXANOYLGLYCINE], the LC retention time was 5.2 min. The result for `COC(=O)C=Cc1ccccc1` [METHYL CINNAMATE] reads 7.95 min; that for `CC(C)(C)C1(O)CC2OC(=O)CC23C(=O)OC2OC(=O)C(O)C231` (stereo not given) [BILOBALIDE], 4.91 min.

Consider `Cn1c(=O)[nH]c2nc[nH]c2c1=O` [1-METHYLXANTHINE], for which the LC retention time is 1.42 min.

As to `NCCc1c[nH]c2ccccc12` [TRYPTAMINE], the LC retention time was 4.34 min. As for `O=S(=O)(O)Oc1ccccc1` [PHENOL SULFATE], the figure is 1.17 min; as for `O=C(O)CNC(=O)c1ccccc1O` [SALICYLURIC ACID], 4.56 min; as for `CSCC[C@H](NC=O)C(=O)O` [N-FORMYL-L-METHIONINE], 4.06 min. `O=C(O)Cc1ccccc1O` [ORTHO-HYDROXYPHENYLACETIC ACID]: the LC retention time is 4.97 min. Regarding `O=C(O)c1cccnc1C(=O)O` [QUINOLINATE], the LC retention time is 1.61 min.

With `O=C(O)C(O)CO` (stereo not given) [GLYCERATE], the LC retention time was 0.911 min. In the case of `NC(CCCC(=O)O)C(=O)O` (stereo not given) [AMINOADIPATE], the LC retention time is 0.943 min. As for `O=C(O)c1cc(=O)c2cccc(O)c2[nH]1` [XANTHURENATE], the figure is 3.98 min; as for `Cc1ccccc1C(=O)O` [2-METHYLBENZOIC ACID], 5.38 min; as for `CC(CCC(=O)NCC(=O)O)C1CCC2C3C(O)CC4CC(O)CCC4(C)C3CC(O)C12C` (stereo not given) [GLYCOCHOLATE], 6.68 min. As for `CC1C(=O)Nc2ccccc21` (stereo not given) [3-METHYL-2-OXINDOLE], the figure is 5.75 min; as for `CSCCC(=O)C(=O)O` [2-OXO-4-METHYLTHIOBUTANOIC ACID], 3.7 min.

As to `O=C(O)c1cc(O)c(O)c(O)c1` [GALLIC ACID], the LC retention time was 1.34 min.

Turning to `CC1CCC2(C(=O)O)CCC3(C)C(=CCC4C5(C)CC(O)C(O)C(C)(CO)C5CCC43C)C2C1C` (stereo not given) [ASIATIC ACID], the LC retention time is 7.17 min. The result for `CCCCCC(O)C(O)CC=CCCCCCCCC(=O)O` (stereo not given) [12,13-DIHOME] reads 7.5 min; that for `CC(=O)NCC(=O)O` [N-ACETYLGLYCINE], 1.26 min.

With `CC(C)(C(=O)O)C(=O)O` [DIMETHYLMALONIC ACID], the LC retention time is 3.97 min.

Take `O=c1cc(CO)occ1O` [KOJIC ACID]: the LC retention time was 1.17 min.

As for `C=C(C)C1Cc2c(ccc3c2OC2COc4cc(OC)c(OC)cc4C2C3=O)O1` (stereo not given) [ROTENONE], the LC retention time was 7.55 min. The result for `O=CNC(Cc1ccccc1)C(=O)O` (stereo not given) [N-FORMYLPHENYLALANINE] reads 4.77 min; that for `O=C(O)c1c[nH]c(=O)[nH]c1=O` [URACIL 5-CARBOXYLATE], 1.91 min; that for `Nc1ncnc2c1ncn2C1OC(CO)C2OP(=O)(O)OC21` (stereo not given) [ADENOSINE 2',3'-CYCLIC PHOSPHATE], 2.8 min. As for `O=C(O)c1cc(O)cc(O)c1` [3,5-DIHYDROXYBENZOIC ACID], the figure is 2.21 min; as for `COc1cc(CC(=O)O)ccc1O` [HOMOVANILLATE], 4.66 min; as for `Cc1nccc2c1[nH]c1ccccc12` [HARMAN], 4.24 min. As for `O=C(O)c1ccc2ccccc2c1O` [1-HYDROXY-2-NAPHTHOATE], the figure is 7.32 min. Regarding `CC(C)(COP(=O)(O)OP(=O)(O)OCC1OC(n2cnc3c(N)ncnc32)C(O)C1O)C(O)C(=O)NCCC(=O)NCCS` (stereo not given) [DEPHOSPHO-COA], the LC retention time was 3.69 min. The result for `NC(=O)CCC(NC(=O)Cc1ccccc1)C(=O)O` (stereo not given) [PHENYLACETYLGLUTAMINE] reads 3.9 min; that for `CC(CC(=O)CC(C)C1CC(O)C2(C)C3=C(C(=O)CC12C)C1(C)CCC(=O)C(C)(C)C1CC3O)C(=O)O` (stereo not given) [GANODERIC ACID A], 6.82 min; that for `Nc1ncnc2c1ncn2C1OC(COP(=O)(O)OP(=O)(O)OC2OC(CO)C(O)C(O)C2O)C(O)C1O` (stereo not given) [ADP-GLUCOSE], 1.16 min. As for `CC1C(=O)OC2CC34C5CC(C(C)(C)C)C36C(OC(=O)C6O)OC4(C(=O)O5)C21O` (stereo not given) [GINKGOLIDE A], the LC retention time was 5.66 min.

For the compound `O=C(CCc1ccc(O)cc1)c1c(O)cc(O)cc1O` [PHLORETIN], the LC retention time was 6.03 min. The result for `Cn1c(=O)[nH]c(=O)c2c1[nH]c(=O)n2C` [3,7-DIMETHYLURIC ACID] reads 1.28 min. As for `O=C(O)CCCCCCCCCO` [10-HYDROXYDECANOATE], the LC retention time was 6.11 min. For the compound `Cc1cn(C2CC(O)C(CO)O2)c(=O)[nH]c1=O` (stereo not given) [THYMIDINE], the LC retention time is 3.56 min. As for `Nc1ncnc2c1ncn2C1CC(O)C(COP(=O)(O)O)O1` (stereo not given) [DEOXYADENOSINE MONOPHOSPHATE], the figure is 2.07 min. As for `O=C(O)CNC(=O)C=Cc1ccccc1` [CINNAMOYLGLYCINE], the figure is 5.02 min.
